Measured values: ChEMBL document CHEMBL1275577, “Study of the in vitro activities of rifaximin and comparator agents against 536 anaerobic intestinal bacteria from the perspective of potential utility in pathology involving bowel flora” (Antimicrob Agents Chemother, 2009)
Values after ≈ are worked out from the molar mass of the structure shown.

Tests used:
Parabacteroides merdae = assay: Antimicrobial activity against Parabacteroides merdae by Wadsworth agar dilution method; format: functional
Clostridium perfringens = assay: Antimicrobial activity against Clostridium perfringens by Wadsworth agar dilution method; format: functional
Prevotella intermedia = assay: Antimicrobial activity against Prevotella intermedia by Wadsworth agar dilution method; format: functional
[1] = tested on: Desulfovibrio desulfuricans; assay: Antimicrobial activity against Desulfovibrio desulfuricans by Wadsworth agar dilution method; format: functional
[2] = tested on: Paraclostridium bifermentans; assay: Antimicrobial activity against Clostridium bifermentans by Wadsworth agar dilution method; format: functional
[3] = tested on: Lactobacillus acidophilus; assay: Antimicrobial activity against Lactobacillus acidophilus by Wadsworth agar dilution method; format: functional
Bifidobacterium bifidum = assay: Antimicrobial activity against Bifidobacterium bifidum by Wadsworth agar dilution method; format: functional
Bacteroides uniformis = assay: Antimicrobial activity against Bacteroides uniformis by Wadsworth agar dilution method; format: functional
[4] = Antimicrobial activity against Bifidobacterium infantis by Wadsworth agar dilution method; format: functional, Bifidobacterium longum subsp. infantis; conditions: Bifidobacterium longum
[5] = tested on: Limosilactobacillus reuteri; assay: Antimicrobial activity against Lactobacillus reuteri by Wadsworth agar dilution method; format: functional
Lactobacillus jensenii = assay: Antimicrobial activity against Lactobacillus jensenii by Wadsworth agar dilution method; format: functional
Clostridium bartlettii = assay: Antimicrobial activity against Clostridium bartlettii by Wadsworth agar dilution method; format: functional; conditions: Intestinibacter bartlettii
[6] = tested on: Parabacteroides goldsteinii; assay: Antimicrobial activity against Parabacteroides goldsteinii by Wadsworth agar dilution method; format: functional
Hoylesella loescheii = assay: Antimicrobial activity against Prevotella loescheii by Wadsworth agar dilution method; format: functional
[7] = tested on: Clostridium paraputrificum; assay: Antimicrobial activity against Clostridium paraputrificum by Wadsworth agar dilution method; format: functional
Ruminococcus lactaris = assay: Antimicrobial activity against Ruminococcus lactaris by Wadsworth agar dilution method; format: functional
[8] = tested on: Coprobacillus cateniformis; assay: Antimicrobial activity against Coprobacillus cateniformis by Wadsworth agar dilution method; format: functional
Bifidobacterium longum = assay: Antimicrobial activity against Bifidobacterium longum by Wadsworth agar dilution method; format: functional
[9] = tested on: Bifidobacterium adolescentis; assay: Antimicrobial activity against Bifidobacterium adolescentis by Wadsworth agar dilution method; format: functional
Fusobacterium mortiferum = assay: Antimicrobial activity against Fusobacterium mortiferum by Wadsworth agar dilution method in presence of beta-lactamase inhibitor Sulbactam; format: functional

`NC[C@@H]1O[C@H](O[C@H]2[C@@H](O)[C@H](O[C@@H]3[C@@H](O)[C@H](N)C[C@H](N)[C@H]3O[C@H]3O[C@H](CN)[C@@H](O)[C@H](O)[C@H]3N)O[C@@H]2CO)[C@H](N)[C@@H](O)[C@@H]1O` [FRAMYCETIN] gave an MIC50 (Parabacteroides merdae) of 1020 µg/mL (≈ 1670 µM), an MIC90 (Parabacteroides merdae) greater than 1020 µg/mL and an MIC50 (Clostridium perfringens) of 1020 µg/mL (≈ 1670 µM). For the same compound, the MIC90 (Clostridium perfringens) was greater than 1020 µg/mL, the MIC50 (Prevotella intermedia) was 512 µg/mL (≈ 833 µM) and the MIC90 (Prevotella intermedia) was 1020 µg/mL (≈ 1670 µM). For the same compound, the MIC [1] was greater than 1020 µg/mL, the MIC50 [1] was greater than 1020 µg/mL and the MIC90 [1] was greater than 1020 µg/mL. It also gave an MIC50 [2] of 256 µg/mL (≈ 416 µM), an MIC90 [2] of 1020 µg/mL (≈ 1670 µM) and an MIC50 [3] of 128 µg/mL (≈ 208 µM). The MIC90 [3] was 1020 µg/mL (≈ 1670 µM), the MIC50 (Bifidobacterium bifidum) was 128 µg/mL (≈ 208 µM) and the MIC90 (Bifidobacterium bifidum) was 1020 µg/mL (≈ 1670 µM). For the same compound, the MIC50 (Bacteroides uniformis) was greater than 1020 µg/mL, the MIC90 (Bacteroides uniformis) was greater than 1020 µg/mL and the MIC50 [4] was 128 µg/mL (≈ 208 µM). For the same compound, the MIC90 [4] was 1020 µg/mL (≈ 1670 µM), the MIC50 [5] was 128 µg/mL (≈ 208 µM) and the MIC90 [5] was 1020 µg/mL (≈ 1670 µM). The MIC50 (Lactobacillus jensenii) was 128 µg/mL (≈ 208 µM), the MIC90 (Lactobacillus jensenii) was 1020 µg/mL (≈ 1670 µM) and the MIC50 (Clostridium bartlettii) was 256 µg/mL (≈ 416 µM). It also gave an MIC90 (Clostridium bartlettii) of 1020 µg/mL (≈ 1670 µM), an MIC50 [6] of 1020 µg/mL (≈ 1670 µM) and an MIC90 [6] greater than 1020 µg/mL. The MIC50 (Hoylesella loescheii) was 512 µg/mL (≈ 833 µM), the MIC90 (Hoylesella loescheii) was 1020 µg/mL (≈ 1670 µM) and the MIC50 [7] was 256 µg/mL (≈ 416 µM). It also gave an MIC90 [7] of 1020 µg/mL (≈ 1670 µM), an MIC50 (Ruminococcus lactaris) of 128 µg/mL (≈ 208 µM) and an MIC90 (Ruminococcus lactaris) of 512 µg/mL (≈ 833 µM). For the same compound, the MIC50 [8] was 128 µg/mL (≈ 208 µM), the MIC90 [8] was 1020 µg/mL (≈ 1670 µM) and the MIC50 (Bifidobacterium longum) was 128 µg/mL (≈ 208 µM). The MIC90 (Bifidobacterium longum) was 1020 µg/mL (≈ 1670 µM), the MIC50 [9] was 128 µg/mL (≈ 208 µM) and the MIC90 [9] was 1020 µg/mL (≈ 1670 µM). It also gave an MIC50 (Fusobacterium mortiferum) of 512 µg/mL and an MIC90 (Fusobacterium mortiferum) greater than 1020 µg/mL.
With `CC(=O)Oc1ccccc1C(=O)Nc1ncc([N+](=O)[O-])s1` [NITAZOXANIDE] the MIC50 (Parabacteroides merdae) was 4 µg/mL (≈ 13 µM), the MIC90 (Parabacteroides merdae) was 4 µg/mL (≈ 13 µM) and the MIC50 (Clostridium perfringens) was 2 µg/mL (≈ 6.51 µM). The MIC90 (Clostridium perfringens) was 4 µg/mL (≈ 13 µM), the MIC50 (Prevotella intermedia) was 4 µg/mL (≈ 13 µM) and the MIC90 (Prevotella intermedia) was 8 µg/mL (≈ 26 µM). The MIC50 [1] was 4 µg/mL (≈ 13 µM), the MIC90 [1] was 4 µg/mL (≈ 13 µM) and the MIC50 [2] was 0.5 µg/mL (≈ 1.63 µM). For the same compound, the MIC90 [2] was 4 µg/mL (≈ 13 µM), the MIC50 [3] was 2 µg/mL (≈ 6.51 µM) and the MIC90 [3] was 32 µg/mL (≈ 104 µM). It also gave an MIC50 (Bifidobacterium bifidum) of 2 µg/mL (≈ 6.51 µM), an MIC90 (Bifidobacterium bifidum) of 32 µg/mL (≈ 104 µM) and an MIC50 (Bacteroides uniformis) of 4 µg/mL (≈ 13 µM). For the same compound, the MIC90 (Bacteroides uniformis) was 4 µg/mL (≈ 13 µM), the MIC50 [4] was 2 µg/mL (≈ 6.51 µM) and the MIC90 [4] was 32 µg/mL (≈ 104 µM). It also gave an MIC50 [5] of 2 µg/mL (≈ 6.51 µM), an MIC90 [5] of 32 µg/mL (≈ 104 µM) and an MIC50 (Lactobacillus jensenii) of 2 µg/mL (≈ 6.51 µM). It also gave an MIC90 (Lactobacillus jensenii) of 32 µg/mL (≈ 104 µM), an MIC50 (Clostridium bartlettii) of 0.5 µg/mL (≈ 1.63 µM) and an MIC90 (Clostridium bartlettii) of 4 µg/mL (≈ 13 µM). For the same compound, the MIC50 [6] was 4 µg/mL (≈ 13 µM), the MIC90 [6] was 4 µg/mL (≈ 13 µM) and the MIC50 (Hoylesella loescheii) was 4 µg/mL (≈ 13 µM). It also gave an MIC90 (Hoylesella loescheii) of 8 µg/mL (≈ 26 µM), an MIC50 [7] of 0.5 µg/mL (≈ 1.63 µM) and an MIC90 [7] of 4 µg/mL (≈ 13 µM). For the same compound, the MIC50 (Ruminococcus lactaris) was 0.5 µg/mL (≈ 1.63 µM), the MIC90 (Ruminococcus lactaris) was 1 µg/mL (≈ 3.25 µM) and the MIC50 [8] was 2 µg/mL (≈ 6.51 µM). For the same compound, the MIC90 [8] was 32 µg/mL (≈ 104 µM), the MIC50 (Bifidobacterium longum) was 2 µg/mL (≈ 6.51 µM) and the MIC90 (Bifidobacterium longum) was 32 µg/mL (≈ 104 µM). The MIC50 [9] was 2 µg/mL (≈ 6.51 µM), the MIC90 [9] was 32 µg/mL (≈ 104 µM) and the MIC50 (Fusobacterium mortiferum) was 1 µg/mL. For the same compound, the MIC90 (Fusobacterium mortiferum) was 8 µg/mL.
